# Source: ChEMBL document CHEMBL3228008, “Synthesis and some pharmacological properties of 8-L-methionine-oxytocin” (1979)
# Where a SMILES comes first, the peptide text is derived from it. Bridges are numbered along the chain shown (N, C = ends).
# How the values were obtained:
# [1] = Oxytocic activity in virgin rat uterine horns; assay type: functional
# [2] = system: Gallus gallus; test: Avian vasodepressor activity in conscious chicken; assay type: functional
# [3] = system: Rattus norvegicus; test: Pressor activity in anesthetized rat; assay type: functional
# [4] = system: Rattus norvegicus; test: Antidiuretic activity in anesthetized rat; assay type: functional, Urine
compound,measurement,setting,value
CC[C@H](C)[C@@H]1NC(=O)[C@H](Cc2ccc(O)cc2)NC(=O)[C@@H](N)CSSC[C@@H](C(=O)N2CCC[C@H]2C(=O)N[C@@H](CCSC)C(=O)NCC(N)=O)NC(=O)[C@H](CC(N)=O)NC(=O)[C@H](CCC(N)=O)NC1=O (H-CYIQNCPMG-NH2; disulfide 1-6),Activity,[1],200 U/mg
same,Activity,[2],193 U/mg
same,Activity,[3],27 U/mg
same,Activity,[4],0.4 U/mg
